6 compounds from patent US12441718B2, “Selective angiotensin II compounds” (VICORE PHARMA AB, priority 2021, dated 2025) can be followed below.

Read-outs that look alike come from different tables or passages of the source.

Data set [1] has as its target T1, CYP2C9 (Homo sapiens, UniProt P11712). Briefly: CYP inhibition in human liver microsomes (Eurofins ITEMG232). It is filed as in vitro ADME. Also noted: isoform-specific substrates incubated with human liver microsomes; tissue Eurofins ITEMG232 (protocol number); host or cells: human liver microsomes. As to conditions: human, probe diclofenac, substrate diclofenac, read-out: CYP2C9 Inh %. On the technique in general: Microsomes from liver hold many membrane-bound enzymes, among them those of drug oxidation.

The subject of another data set is CYP3A4&5. Briefly: in vitro. As to conditions: human, human liver microsomes, probe testosterone.
In another data set the target is T2, CYP1A2 (Homo sapiens, UniProt P05177).
T2 construct: isoform-specific substrates incubated with human liver microsomes; tissue Eurofins ITEMG232 (protocol number); host or cells: human liver microsomes
T2 sequence (P05177 whole entry, canonical isoform): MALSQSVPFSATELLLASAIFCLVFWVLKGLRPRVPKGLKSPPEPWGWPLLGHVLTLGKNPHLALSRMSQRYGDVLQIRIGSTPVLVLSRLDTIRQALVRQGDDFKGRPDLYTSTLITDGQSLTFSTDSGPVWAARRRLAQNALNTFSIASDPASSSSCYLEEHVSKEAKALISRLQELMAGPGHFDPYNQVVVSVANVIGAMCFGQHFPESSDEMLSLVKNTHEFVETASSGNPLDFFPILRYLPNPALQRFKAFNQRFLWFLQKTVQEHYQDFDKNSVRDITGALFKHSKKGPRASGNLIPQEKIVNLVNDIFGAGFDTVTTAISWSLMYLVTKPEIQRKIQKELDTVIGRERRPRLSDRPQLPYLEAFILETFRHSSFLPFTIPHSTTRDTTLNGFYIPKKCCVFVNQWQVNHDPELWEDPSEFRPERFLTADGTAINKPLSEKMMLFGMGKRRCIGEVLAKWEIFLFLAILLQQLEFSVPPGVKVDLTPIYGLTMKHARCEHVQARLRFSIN
Kind of data set: in vitro. Type of data set: in vitro ADME. Conditions: human, microsomes, human liver microsomes, substrate phenacetin, read-out: CYP1A2 Inh %.

Data set [2] has as its target T3, human recombinant AT1 receptor (Homo sapiens, UniProt P30556).
T3 construct: purchased Eurofins ITEM24 (protocol number)
T3 sequence (P30556 1-359): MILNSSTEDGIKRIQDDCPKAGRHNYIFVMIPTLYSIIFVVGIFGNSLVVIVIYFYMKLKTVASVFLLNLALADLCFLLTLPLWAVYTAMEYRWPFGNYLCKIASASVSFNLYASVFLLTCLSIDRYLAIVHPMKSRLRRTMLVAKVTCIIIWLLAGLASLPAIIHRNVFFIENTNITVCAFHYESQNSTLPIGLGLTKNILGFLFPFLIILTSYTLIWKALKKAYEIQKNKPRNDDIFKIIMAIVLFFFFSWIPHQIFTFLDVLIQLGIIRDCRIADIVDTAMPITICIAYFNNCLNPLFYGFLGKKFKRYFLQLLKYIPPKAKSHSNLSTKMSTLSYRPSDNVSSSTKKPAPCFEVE
Briefly: Binding to AT1 receptor, radiometric scintillation assay (Eurofins ITEM24). As to conditions: test compounds at 1 and 10 μM, ligand 125I(sar1,Ile8)-AT-II; * rows = mean of runs.

In data set [3] the target is T4, CYP3A4 (Homo sapiens, UniProt P08684). Briefly: CYP inhibition in human liver microsomes (Eurofins ITEMG232), midazolam substrate. As to conditions: human, probe midazolam, read-out: CYP3A4 midazolam Inh %. Type of data set: in vitro ADME. Also noted: isoform-specific substrates incubated with human liver microsomes; tissue Eurofins ITEMG232 (protocol number); host or cells: human liver microsomes.
T4 sequence (P08684 whole entry, canonical isoform): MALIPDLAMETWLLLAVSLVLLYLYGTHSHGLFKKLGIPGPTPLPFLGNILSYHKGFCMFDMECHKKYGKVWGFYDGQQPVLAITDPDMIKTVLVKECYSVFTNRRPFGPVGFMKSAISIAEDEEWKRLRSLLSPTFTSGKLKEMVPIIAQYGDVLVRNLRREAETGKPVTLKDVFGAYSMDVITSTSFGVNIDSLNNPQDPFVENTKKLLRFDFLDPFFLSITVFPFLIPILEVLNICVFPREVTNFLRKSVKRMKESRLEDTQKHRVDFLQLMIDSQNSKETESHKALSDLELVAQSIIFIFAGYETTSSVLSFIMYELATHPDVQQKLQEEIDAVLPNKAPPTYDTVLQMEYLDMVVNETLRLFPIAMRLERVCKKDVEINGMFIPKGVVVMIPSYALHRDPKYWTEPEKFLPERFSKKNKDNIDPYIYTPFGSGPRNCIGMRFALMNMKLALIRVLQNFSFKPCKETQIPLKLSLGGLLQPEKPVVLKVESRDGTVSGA

Another data set has as its target T5, CYP2D6 (Homo sapiens, UniProt P10635).
T5 construct: isoform-specific substrates incubated with human liver microsomes; tissue Eurofins ITEMG232 (protocol number); host or cells: human liver microsomes
Kind of data set: CYP inhibition in human liver microsomes (Eurofins ITEMG232). Type of data set: in vitro ADME. As to conditions: probe dextromethorphan, substrate dextromethorphan, read-out: CYP2D6 Inh %.

The target in another data set is T6, CYP2C19 (Homo sapiens, UniProt P33261).
T6 construct: isoform-specific substrates incubated with human liver microsomes; tissue Eurofins ITEMG232 (protocol number); host or cells: human liver microsomes
T6 sequence (P33261 whole entry, canonical isoform): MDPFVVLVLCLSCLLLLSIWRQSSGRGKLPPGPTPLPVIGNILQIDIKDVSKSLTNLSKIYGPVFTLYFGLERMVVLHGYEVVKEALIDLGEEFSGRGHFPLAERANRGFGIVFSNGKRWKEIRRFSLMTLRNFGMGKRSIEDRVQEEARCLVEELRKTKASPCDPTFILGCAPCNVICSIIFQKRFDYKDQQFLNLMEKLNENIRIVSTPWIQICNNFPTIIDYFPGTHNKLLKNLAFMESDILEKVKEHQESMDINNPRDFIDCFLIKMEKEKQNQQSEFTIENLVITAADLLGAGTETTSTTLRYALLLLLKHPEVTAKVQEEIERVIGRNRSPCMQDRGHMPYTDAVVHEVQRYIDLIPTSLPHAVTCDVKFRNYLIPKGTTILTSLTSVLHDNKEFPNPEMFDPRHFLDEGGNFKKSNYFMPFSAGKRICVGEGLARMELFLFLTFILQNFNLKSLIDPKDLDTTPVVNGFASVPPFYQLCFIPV
The description is as above. Type of data set: in vitro ADME. As to conditions: human, probe omeprazole, substrate omeprazole, read-out: CYP2C19 Inh %.

The nature of data set [4]: Metabolic stability in pooled human liver microsomes. It is filed as in vitro ADME. As to conditions: human, pooled human liver microsomes, pooled human liver microsomes 0.5 mg/mL, 1 μM test compound, 37° C., * rows = mean of two runs. In a few lines:
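Pooled human liver microsomes (0.5 mg/mL in PBS) preincubated ±1 mM NADPH at 37° C; test compound added at 10 min to 1 μM final. Samples at 0, 5, 15 and 60 min quenched in acetonitrile, parent quantified by LC-MS/MS against a standard curve (terfenadine internal standard). Initial metabolic rate calculated with and without NADPH.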

In another data set the target is T7, CYP2C8 (Homo sapiens, UniProt P10632).
T7 construct: isoform-specific substrates incubated with human liver microsomes; tissue Eurofins ITEMG232 (protocol number); host or cells: human liver microsomes
T7 sequence (P10632 1-490): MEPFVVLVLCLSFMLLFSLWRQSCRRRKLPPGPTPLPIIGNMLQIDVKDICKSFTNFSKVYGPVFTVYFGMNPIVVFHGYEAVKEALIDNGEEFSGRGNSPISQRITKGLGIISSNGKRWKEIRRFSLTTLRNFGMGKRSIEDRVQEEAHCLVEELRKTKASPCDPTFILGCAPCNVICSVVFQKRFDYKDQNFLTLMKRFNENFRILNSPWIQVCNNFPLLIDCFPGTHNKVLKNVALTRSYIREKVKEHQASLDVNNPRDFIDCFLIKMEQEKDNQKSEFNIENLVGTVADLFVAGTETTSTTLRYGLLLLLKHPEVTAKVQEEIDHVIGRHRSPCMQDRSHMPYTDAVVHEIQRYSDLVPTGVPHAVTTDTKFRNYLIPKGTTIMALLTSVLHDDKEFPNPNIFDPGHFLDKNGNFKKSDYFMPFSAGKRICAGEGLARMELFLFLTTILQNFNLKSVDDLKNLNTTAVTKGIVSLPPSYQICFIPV
Kind of data set: CYP inhibition in human liver microsomes (Eurofins ITEMG232). It is filed as in vitro ADME. As to conditions: human, probe paclitaxel and amodiaquine, substrate paclitaxel and amodiaquine, read-out: CYP2C8 Inh %.

In another data set the target is T8, CYP2B6 (Homo sapiens, UniProt P20813).
T8 construct: isoform-specific substrates incubated with human liver microsomes; tissue Eurofins ITEMG232 (protocol number); host or cells: human liver microsomes
T8 sequence (P20813 1-491): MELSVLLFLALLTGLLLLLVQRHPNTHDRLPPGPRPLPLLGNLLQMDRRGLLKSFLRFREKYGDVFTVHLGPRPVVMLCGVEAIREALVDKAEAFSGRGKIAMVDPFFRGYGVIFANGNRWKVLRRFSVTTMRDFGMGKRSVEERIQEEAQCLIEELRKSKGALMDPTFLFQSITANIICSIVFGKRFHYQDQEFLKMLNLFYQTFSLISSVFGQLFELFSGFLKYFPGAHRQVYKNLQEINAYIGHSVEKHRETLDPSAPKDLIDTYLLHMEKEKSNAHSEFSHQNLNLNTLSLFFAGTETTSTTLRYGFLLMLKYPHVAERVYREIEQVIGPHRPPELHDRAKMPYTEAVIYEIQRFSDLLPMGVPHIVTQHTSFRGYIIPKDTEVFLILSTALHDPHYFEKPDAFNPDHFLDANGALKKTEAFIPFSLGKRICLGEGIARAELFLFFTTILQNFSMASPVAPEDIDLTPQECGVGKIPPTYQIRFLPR
The description is as above. Type of data set: in vitro ADME. As to conditions: probe bupropion, substrate bupropion, read-out: CYP2B6 Inh %.

The target of data set [5] is T9, human recombinant AT2 receptor (Homo sapiens, UniProt P50052).
T9 construct: purchased Eurofins ITEM26 (protocol number)
T9 sequence (P50052 1-363): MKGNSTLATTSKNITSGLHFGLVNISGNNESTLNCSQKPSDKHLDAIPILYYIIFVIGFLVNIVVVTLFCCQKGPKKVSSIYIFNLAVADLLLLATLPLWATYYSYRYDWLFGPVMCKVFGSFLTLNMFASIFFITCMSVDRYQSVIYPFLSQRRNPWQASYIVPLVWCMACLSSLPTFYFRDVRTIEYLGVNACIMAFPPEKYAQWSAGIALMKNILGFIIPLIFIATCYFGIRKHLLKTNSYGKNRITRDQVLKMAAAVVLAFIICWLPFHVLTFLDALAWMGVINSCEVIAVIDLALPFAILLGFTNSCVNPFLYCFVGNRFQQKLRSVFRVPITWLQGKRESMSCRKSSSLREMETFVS
Kind of data set: Binding to AT2 receptor, radiometric scintillation assay (Eurofins ITEM26). As to conditions: ligand 125I CGP 42112A, * rows = mean of runs; for Ki: seven-point dose-response curve; for IC50: test compounds at 1, 10, 100 and 1000 nM, read-out: AT2 GraFit IC50.

Data set [6] deals with T4, CYP3A4. Kind of data set: CYP inhibition of C21 found during development. Type of data set: in vitro ADME. As to conditions: statement in background.
Data set [7] can be described thus: Metabolic hydrolysis of C21 found during development. Type of data set: in vitro ADME. As to conditions: statement in background.
The target in data set [8] is T1, CYP2C9. Briefly: CYP inhibition of C21 found during development. Type of data set: in vitro ADME. As to conditions: statement in background.
[9] abbreviates: with 1 mM NADPH, read-out: T1/2, + NaDPH.
[10] abbreviates: without NADPH, read-out: T1/2, no NaDPH.

T1 sequence (P11712 whole entry, canonical isoform): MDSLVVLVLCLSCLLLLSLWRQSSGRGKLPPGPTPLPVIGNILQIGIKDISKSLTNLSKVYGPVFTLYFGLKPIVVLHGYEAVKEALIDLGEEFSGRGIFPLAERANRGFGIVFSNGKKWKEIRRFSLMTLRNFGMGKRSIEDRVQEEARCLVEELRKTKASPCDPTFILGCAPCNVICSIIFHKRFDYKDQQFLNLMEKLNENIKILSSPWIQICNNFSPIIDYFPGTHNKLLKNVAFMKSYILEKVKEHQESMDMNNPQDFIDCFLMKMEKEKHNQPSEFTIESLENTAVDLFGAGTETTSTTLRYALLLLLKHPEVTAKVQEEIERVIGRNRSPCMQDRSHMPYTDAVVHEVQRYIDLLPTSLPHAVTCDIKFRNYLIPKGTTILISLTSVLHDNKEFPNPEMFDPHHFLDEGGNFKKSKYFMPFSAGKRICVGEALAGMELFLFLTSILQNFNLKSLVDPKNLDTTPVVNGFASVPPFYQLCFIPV
T5 sequence (P10635 whole entry, canonical isoform): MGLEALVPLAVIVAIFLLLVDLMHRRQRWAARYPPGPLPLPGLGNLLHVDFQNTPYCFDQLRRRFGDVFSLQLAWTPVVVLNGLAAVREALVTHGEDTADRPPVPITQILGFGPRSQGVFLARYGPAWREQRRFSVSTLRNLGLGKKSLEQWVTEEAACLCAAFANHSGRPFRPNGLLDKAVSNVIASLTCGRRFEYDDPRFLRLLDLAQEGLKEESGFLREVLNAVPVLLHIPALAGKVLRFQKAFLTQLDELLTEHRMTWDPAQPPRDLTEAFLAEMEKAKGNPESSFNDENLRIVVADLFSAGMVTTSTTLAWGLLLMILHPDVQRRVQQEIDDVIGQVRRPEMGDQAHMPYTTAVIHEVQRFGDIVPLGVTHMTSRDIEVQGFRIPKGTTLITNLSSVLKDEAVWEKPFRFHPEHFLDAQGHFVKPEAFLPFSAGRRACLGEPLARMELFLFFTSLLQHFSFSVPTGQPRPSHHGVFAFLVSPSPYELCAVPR
Description for CYP1A2: The following substrates were used; CYP1A phenacetin, CYP2B36 bupropion, CYP2C8 paclitaxel and amodiaquine, CYP2C9 diclofenac, CYP2C19 omeprazole, CYP2D6 dextromethorphan, CYP3A midazolam and testosterone.
At the end of the incubation, the formation of metabolite was monitored by HPLC-MS/MS as the peak area response.

In general, IC50 refers to the point on the concentration scale where inhibition reaches its midpoint. In general, Ki refers to the dissociation constant of the complex between target and ligand, obtained from inhibition or displacement. Take `COc1ncncc1NS(=O)(=O)c1ccc(CC(C)C)cc1-c1ccc(Cn2ccnc2C(C)(C)C)c(F)c1` [Example 22, 4′-((2-(tert-Butyl)-1H-imidazol-1-yl)methyl)-3′-fluoro-5-isobutyl-N-(4-methoxy-pyrimidin-5-yl)-[1,1′-biphenyl]-2-sulfonamide]: the inhibition at 10 µM at CYP2C9 [1] is 94.7%; with CYP3A4&5 it was 97%; on CYP1A2 it was -1.1%; on CYP3A4 [3], 98.2%; at CYP2D6 it was 4%; on CYP2C19, 85.7%. The values for the inhibition at 10 µM on CYP2C8 and at CYP2B6 were 58.1% and 20.5%, respectively. For the same compound, the 50% inhibitory concentration (IC50) in data set [2] is 58700 nM; in data set [5], 142 nM. Besides, the results for the half-life at 1 μM in data set [4] (setting [9]) and in [4] (setting [10]) were 0.133 h and above 1 h, respectively. For the same compound, the Ki in data set [5] amounted to 71 nM.
Regarding `CCCCOC(=O)NS(=O)(=O)c1sc(CC(C)C)cc1-c1ccc(Cn2ccnc2)cc1` [Example C21, N-butyloxycarbonyl-3-(4-imidazol-1-ylmethylphenyl)-5-isobutylthiophene-2-sulfon-amide], the inhibition at 10 µM in the data set on CYP3A4&5 was 94%. Further, the “inhibition of CYP 3A4” value at CYP3A4 [6] is reported as “potent inhibitor”. Further, the half-life at 1 μM in [4] (setting [10]) stood at 0.5 h. The metabolic hydrolysis result in data set [7] was “rapidly hydrolysed to an inactive sulfonamide metabolite”. Besides, on CYP2C9 [8], the “inhibition of CYP 2C9” value was “potent inhibitor”.
On to `CC(C)Cc1ccc(S(=O)(=O)Nc2ncc(F)cn2)c(-c2ccc(Cn3ccnc3C(C)(C)C)c(F)c2)c1` [Example 9, 4′-((2-(tert-Butyl)-1H-imidazol-1-yl)methyl)-3′-fluoro-N-(5-fluoropyrimidin-2-yl)-5-isobutyl-[1,1′-biphenyl]-2-sulfonamide], for which the inhibition at 10 µM on CYP2C9 [1] was 73.1%; with CYP3A4&5 it was -14.9%; at CYP1A2, 48.6%; at CYP3A4 [3] it was 7.7%; at CYP2D6, 16.4%; on CYP2C19, 35.8%. Also, the inhibition at 10 µM on CYP2C8 turned out to be 91.6%; on CYP2B6, 30.4%. For the same compound, the half-maximal inhibitory concentration (IC50) in data set [2] came to 5200 nM; in data set [5], 4.11 nM. Moreover, the half-life at 1 μM in data set [4] (setting [9]) and in data set [4] (setting [10]) was above 1 h throughout. Also, the Ki in [5] stood at 2.05 nM.
Turning to `CC(C)Cc1ccc(S(=O)(=O)Nc2ncc(F)cn2)c(-c2ccc(Cn3ccnc3C(C)(C)C)cc2)c1` [Example 3, 4′-((2-(tert-Butyl)-1H-imidazol-1-yl)methyl)-N-(5-fluoropyrimidin-2-yl)-5-isobutyl-[1,1′-biphenyl]-2-sulfonamide], the inhibition at 10 µM at CYP2C9 [1] was 4%; in the data set with CYP3A4&5, 26.8%; on CYP1A2, -33.8%; at CYP3A4 [3], 49.8%; on CYP2D6, 17.2%; at CYP2C19, 36.9%. Besides, the inhibition at 10 µM on CYP2C8 is 89.2%; on CYP2B6, -0.5%. In addition, the 50% inhibitory concentration (IC50) is 14300 nM in data set [2] and 4.79 nM in [5]. The half-life at 1 μM in [4] (setting [9]) and in data set [4] (setting [10]) was above 1 h in each case. The Ki in [5] was 2.4 nM.
On to `Cc1cnc(NS(=O)(=O)c2ccc(CC(C)C)cc2-c2ccc(Cn3ccnc3C(C)(C)C)cc2)nc1` [Example 20, 4′-((2-(tert-Butyl)-1H-imidazol-1-yl)methyl)-5-isobutyl-N-(5-methylpyrimidin-2-yl)-[1,1′-biphenyl]-2-sulfonamide], for which the inhibition at 10 µM is 69% at CYP2C9 [1]; 28.1% in the data set with CYP3A4&5; 10.7% at CYP1A2; 47.5% at CYP3A4 [3]; 20.1% on CYP2D6; 48% on CYP2C19. The inhibition at 10 µM on CYP2C8 is 40.9%; on CYP2B6, 12.5%. For the same compound, the IC50 in data set [2] stood at 22700 nM; in [5], 7.5 nM. Also, the half-life at 1 μM was 0.667 h in [4] (setting [9]) and above 1 h in data set [4] (setting [10]). In addition, the Ki in data set [5] worked out at 3.75 nM.
Take `CC(C)Cc1ccc(S(=O)(=O)Nc2ncccn2)c(-c2ccc(Cn3ccnc3)c(F)c2)c1` [Example 30, 4′-((1H-Imidazol-1-yl)methyl)-3′-fluoro-5-isobutyl-N-(pyrimidin-2-yl)-[1,1′-biphenyl]-2-sulfonamide]: the inhibition at 10 µM on CYP2C9 [1] was determined as 98%; in the data set on CYP3A4&5 it was 92.2%; on CYP1A2, 60.2%; on CYP3A4 [3], 94%; at CYP2D6, 50.9%; at CYP2C19 it was 95.7%. Further, the results for the inhibition at 10 µM at CYP2C8 and on CYP2B6 were 62.4% and 38.4%, respectively. The figures for the IC50 in [2] and in data set [5] were 125 nM and 1.01 nM, respectively. Further, the half-life at 1 μM is 1 h in [4] (setting [9]) and above 1 h in data set [4] (setting [10]). The Ki in [5] turned out to be 0.5 nM.
